Columns and labels:
[1] = Plasma protein binding test, monkey; assay type: in vitro ADME
Description: • 1. Test compound and control compound were dissolved in dimethyl sulfoxide (DMSO) to achieve 10 mM stock solutions. DMSO working solutions were prepared at 400 μM. To prepare the loading matrix, compound working solutions (5 μL) were added in a 1:200 ratio to blank matrix (995 μL), and mixed thoroughly. • 2. To prepare the time zero (TO) samples to be used for recovery determination, 50 μL aliquots of loading matrix were transferred in triplicate to the sample collection plate. The samples were immediately matched with opposite blank buffer to obtain a final volume of 100 μL of 1:1 matrix/dialysis buffer (v/v) in each well. 500 μL of stop solution were added to these TO samples. They were then stored at 2-8° C. pending further processes along with other post-dialysis samples. • 3. To load the dialysis device, an aliquot of 150 μL of the loading matrix was transferred to the donor side of each dialysis well in triplicate, and 150 μL of the dialysis buffer was loaded to the receiver side of the well. The dialysis plate was placed in a humidified incubator at 37° C. with 5% CO2 on a shaking platform that rotated slowly (about 100 rpm) for 4 hours • 4. At the end of the dialysis, aliquots of 50 μL of samples were taken from both the buffer side and the matrix side of the dialysis device. […]
The % Unbound and % Bound were calculated using the following equations: […]

JAK2/JAK2 pathway = experiment: Selectivity: JAK2/JAK2 pathway, TPO-induced p-STAT3 in MEG-1 cells, western blot; assay type: cell-based; conditions: TPO 100 ng/mL
Description: MEG-1 cells were digested by trypsin, re-suspended in 1640 medium and counted. The compounds to be measured were added to 6 well plates (1 million/per well) for 2 hours, and then TPO (final concentration: 100 ng/mL) was added to stimulate cells for 30 minutes. The cells were collected and lysed with protein lysate. The protein was quantitatively tested by BCA kit. Finally, p-STAT3/STAT3 and internal reference protein β-actin were detected by western blot.

[2] = Pharmacokinetic evaluation in beagle dog; assay type: in vivo; conditions: for F / AUC / Vd / clearance / half-life / Cmax / Tmax: beagle dog; for plasma exposure in beagle dog (in words): conclusion from Table 11; for AUC / Vd / clearance / half-life / Cmax / Tmax: plasma
Description: The beagle dog pharmacokinetic characteristics of compounds were tested by standard protocols. The candidate compounds were made into clear solution for single intravenous injection (i.v.) and suspension for oral administration (p.o.). Intravenous and oral vehicle is 5% DMSO+10% Solutol+85% Saline. The experiment used 9 dog and 3 dog for intravenous at a dose of 1 mg/kg. Plasma samples were collected at 0 h (before dosing) and 0.083 h, 0.25 h, 0.5 h, 1 h, 2 h, 4 h, 8 h, 24 h after dosing. 3 dog were orally administrated at a dose of 5 mg/kg and 3 dog were orally administrated at a dose of 15 mg/kg. Plasma samples were collected at 0 h (before dosing) and 0.25 h, 0.5 h, 1 h, 2 h, 4 h, 6 h, 8 h, 24 h after dosing.
Blood samples were placed in tubes containing K2-EDTA and stored on ice until centrifuged. The blood samples were centrifuged at 6800 g for 6 minutes at 2-8° C. within 1 h after collected, and stored frozen at approximately −80° C.
The analytical results were confirmed using quality control samples for intra-assay variation. The accuracy of >66.7% of the quality control samples and 50% of all QC samples at each concentration level were between 80-120% of the known value(s).
Standard set of parameters including area under the curve (AUC(0-t) and AUC(0-∞)), elimination half-live (T1/2), maximum plasma concentration (Cmax), time to reach maximum plasma concentration (Tmax) were calculated using noncompartmental analysis modules in FDA certified pharmacokinetic program Phoenix WinNonlin 7.0 (Pharsight, USA) by the Study Director.

| fraction unbound at 4 h, 2 μM [1] | F ([2]; p.o. 5 mg/kg) | F ([2]; p.o. 15 mg/kg) | plasma exposure in beagle dog (in words) [2] | AUC ([2]; iv, i.v. 1 mg/kg) | Vd ([2]; iv, i.v. 1 mg/kg) | clearance ([2]; iv, i.v. 1 mg/kg) | half-life ([2]; iv, i.v. 1 mg/kg) | AUC ([2]; po, p.o. 5 mg/kg) | Cmax ([2]; po, p.o. 5 mg/kg) | Tmax ([2]; po, p.o. 5 mg/kg) | AUC ([2]; po, p.o. 15 mg/kg) | Cmax ([2]; po, p.o. 15 mg/kg) | Tmax ([2]; po, p.o. 15 mg/kg) | SMILES | effect on TPO-induced downstream STAT3 phosphorylation (JAK2/JAK2 pathway) |
| --- | --- | --- | --- | --- | --- | --- | --- | --- | --- | --- | --- | --- | --- | --- | --- |
| 0.042 | – | – | – | – | – | – | – | – | – | – | – | – | – | CCC(=O)c1cnc(NC(=O)C2CC2)cc1Nc1cccc(-c2cc(P(C)(C)=O)n(C)n2)c1OC [Compound B2, N-(4-((3-(5-(dimethylphosphoryl)-1-methyl-1H-pyrazol-3-yl)-2-methoxyphenyl)amino)-5-propionylpyridin-2-yl)cyclopropanecarboxamide] | – |
| – | 46% | 21% | excellent plasma exposure | 9240 ng·h/mL | 0.33 L/kg | 1.9 mL/min/kg | 2.2 h | 21300 ng·h/mL | 3980 ng/mL | 0.83 h | 28600 ng·h/mL | 4870 ng/mL | 0.67 h | CCC(=O)c1cnc(NC(=O)C2CC2)cc1Nc1cccc(-c2cc(P(=O)(C3CC3)C3CC3)n(C)n2)c1OC [Compound B37, N-(4-((3-(5-(dicyclopropylphosphoryl)-1-methyl-1H-pyrazol-3-yl)-2-methoxyphenyl)amino)-5-propionylpyridin-2-yl)cyclopropanecarboxamide] | no effect |
| 0.076 | 79% | 120% | excellent plasma exposure | 4900 ng·h/mL | 0.56 L/kg | 4 mL/min/kg | 2.1 h | 19400 ng·h/mL | 3100 ng/mL | 1 h | 88000 ng·h/mL | 9870 ng/mL | 1.7 h | [2H]C([2H])([2H])NC(=O)c1nnc(NC(=O)C2CC2)cc1Nc1cccc(-c2cc(P(=O)(C3CC3)C3CC3)n(C)n2)c1OC [Compound B41, 6-(cyclopropanecarboxamido)-4-((3-(5-(dicyclopropylphosphoryl)-1-methyl-1H-pyrazol-3-yl)-2-methoxyphenyl)amino)-N-(methyl-d3)pyridazine-3-carboxamide] | no effect |

From US20240343747A1, “Heteroaryl compounds as inhibitors of TYK2, composition and application thereof” (Accro Bioscience (HK) Limited, priority 2021, published 2024)
